Reference: paper PMC3199943, “Screening the MayBridge Rule of 3 Fragment Library for Compounds That Interact with the Trypanosoma brucei myo-Inositol-3-Phosphate Synthase and/or Show Trypanocidal Activity” (Molecular Biology International, 2011)
Like-named read-outs stand apart in the source and are kept apart here.

How the values were obtained:
TbINO1 = target: T1, TbINO1 (Trypanosoma brucei brucei, UniProt Q5QQ46); assay: biochemical; format: binding; settings: for Tb Ino1 Tm Shift [˚C]: Supplementary Table 1, compound 1mM, mean ± SD from Boltzman curve fitting
T1 sequence (Q5QQ46 1-528): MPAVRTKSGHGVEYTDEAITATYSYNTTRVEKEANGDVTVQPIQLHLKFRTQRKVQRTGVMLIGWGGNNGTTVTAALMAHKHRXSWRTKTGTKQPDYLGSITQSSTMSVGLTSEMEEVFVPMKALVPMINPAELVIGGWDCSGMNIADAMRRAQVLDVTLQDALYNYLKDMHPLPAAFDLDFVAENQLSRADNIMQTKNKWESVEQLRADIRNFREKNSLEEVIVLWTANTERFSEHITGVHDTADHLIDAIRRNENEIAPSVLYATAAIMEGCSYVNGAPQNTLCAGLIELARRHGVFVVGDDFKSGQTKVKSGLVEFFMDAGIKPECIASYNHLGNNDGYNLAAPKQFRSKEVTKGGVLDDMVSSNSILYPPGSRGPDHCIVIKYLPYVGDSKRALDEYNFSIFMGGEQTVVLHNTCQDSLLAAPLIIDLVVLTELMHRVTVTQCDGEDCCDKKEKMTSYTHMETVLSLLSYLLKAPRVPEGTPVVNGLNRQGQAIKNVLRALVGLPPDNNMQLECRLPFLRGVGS

A549 cells = assay: Cytotoxicity against A549 cells, Alamar Blue; format: cell-based; settings: Supplementary Table 1, compound 0.5 mM, percentage of controls (n=1); for viability at 500 µM: Homo sapiens, A549, 65 h
Method in brief: (§1)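 Viability by Alamar Blue (5 h) after ~65 h drug treatment; seeding density 2 × 10^4 cells/well in DMEM supplemented with 10% FCS and 2 mM L-Glutamine.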

HeLa cells = assay: cells; settings: for viability at 500 µM: Homo sapiens, HeLa, 65 h; for HeLa Cells Alamar Blue: Supplementary Table 1, compound 0.5 mM, percentage of controls, mean ± SD (n=3) or SE (n=2)
Method in brief: as §1

[1] = read-out: Tb Ino1 Tm Shift [˚C]
[2] = read-out: HeLa Cells Alamar Blue
[3] = read-out: HeLa Cells Alamar Blue (% survival)

SMILES	ΔTm at 1000 µM (TbINO1; [1]) [°C]	viability at 500 µM (A549 cells) [%]	viability at 500 µM (HeLa cells; [2]) [%]	ΔTm at 1000 µM (TbINO1; read-out: TbIno1 Tm shift [°C]) [°C]	viability at 500 µM (HeLa cells; [3]) [%]	Tb Ino1 Tm Shift [˚C] (TbINO1) [°C]	A549 Cells Alamar Blue (A549 cells)	HeLa Cells Alamar Blue (HeLa cells)
O=C(O)C(O)c1ccccc1 (stereo not drawn) [compound 202, 2‐hydroxy‐2‐phenylacetic acid]	0	55.6	96.7 ± 12.5					
c1ccc(-c2cnco2)cc1 [compound 156, 5‐phenyl‐1,3‐oxazole]	0.95 ± 0.06	104	77.5 ± 18.3					
Cc1ncsc1C(=O)O [compound 145, 4‐Methyl‐thiazole‐5‐carboxylic acid]	0.01 ± 0.07	114	90.6 ± 16.1					
Cc1nc(C#N)cs1 [compound 67, 2‐methyl‐1,3‐thiazole‐4‐carbonitrile]	0.01 ± 0.07	89.7	96.1 ± 9.2					
COC(=O)C1NCCS1 (stereo not drawn) [compound 44]	0.11 ± 0.06	75.7	85.7 ± 19.3	2.81 ± 0.1	108 ± 15.9			
CCOC(=O)Cc1csc(C)n1 [compound 494, ethyl 2‐(2‐methyl‐1,3‐thiazol‐4‐yl)acetate]	0.99 ± 0.08	120	103 ± 17.9					
COc1c(C(=O)O)csc1Cl [compound 575, 5‐chloro‐4‐methoxythiophene‐3‐carboxylic acid]						1.07 ± 0.08	91.2 percentage of controls	90.5 ± 15.4 percentage of controls
Nc1cccc(-c2ccsc2)c1 [compound 404, 3‐thien‐3‐ylaniline]	0.17 ± 0.05	83.3	89.4 ± 17.7					
OCc1cccc2c1OCC2 [compound 186, 2,3-Dihydrobenzo[b]furan-7-methanol]		41.8	86.5 ± 14.8	4.09 ± 0.09	86.5 ± 14.8			
Cc1csc(C(N)=O)c1 [compound 134, 4‐methylthiophene‐2‐carboxamide]	0.61 ± 0.07	123	83.1 ± 5.6					
CCOC(=O)C1CSCCN1 (stereo not drawn) [compound 402, ethyl thiomorpholine‐3‐carboxylate]	0.45 ± 0.08	95.2	107 ± 18.3					
O=c1c2ccccc2oc2ncccc12 [compound 600, 5H‐chromeno[2,3‐b]pyridin‐5‐one]	0.62 ± 0.05	126	78.4 ± 11					
Cn1nc(-c2cccs2)cc1CO [compound 587, (1‐methyl‐3‐thien‐2‐yl‐1H‐pyrazol‐5‐yl)methanol]						0.36 ± 0.07	65.8 percentage of controls	91.6 ± 8.8 percentage of controls
Nc1cccc(Oc2ccccn2)c1 [compound 506, 3‐(pyridin‐2‐yloxy)aniline]	0.23 ± 0.09	72.5	99.2 ± 16.2					
CC1CNC(C)CN1 (stereo not drawn) [compound 36, 2,5‐dimethylpiperazine]	0.18 ± 0.08	76.6	91.3 ± 12.1					
Cc1nn(C)c(C)c1CN [compound 128, (1,3,5‐trimethyl‐1H‐pyrazol‐4‐yl)methylamine]						0.22 ± 0.06	87.7 percentage of controls	80.3 ± 7 percentage of controls
COC(=O)c1cscc1N [compound 244, methyl 4‐aminothiophene‐3‐carboxylate]	0.61 ± 0.11	90.3	78.7 ± 17.9					
Cc1nc(-c2ccccc2)c(CO)s1 [compound 666, (2‐methyl‐4‐phenyl‐1,3‐thiazol‐5‐yl)methanol]						0.08 ± 0.05	113.4 percentage of controls	95.3 ± 5 percentage of controls
N#Cc1cc(N)ccc1-n1cccc1 [compound 471, 5‐amino‐2‐(1H‐pyrrol‐1‐yl)benzonitrile]	0.1 ± 0.08	81.4	89.3 ± 18.8					
c1cncc(-n2cccc2)c1 [compound 151, 3‐(1H‐pyrrol‐1‐yl)pyridine]	0.43 ± 0.06	90.1	90.3 ± 6					
Cn1ccc(C(F)(F)F)n1 [compound 181, 1‐methyl‐3‐(trifluoromethyl)‐1H‐pyrazole]	0.11 ± 0.08	58.4	115 ± 9.9					
COC(=O)c1cccs1 [compound 138, methyl thiophene‐2‐carboxylate]	0.31 ± 0.05	121	89.4 ± 9.3					

Now from value to compound, other results behind:

ΔTm at 1000 µM (TbINO1; [1]) [°C]	SMILES	viability at 500 µM (A549 cells) [%]	viability at 500 µM (HeLa cells; [2]) [%]	ΔTm at 1000 µM (TbINO1; read-out: TbIno1 Tm shift [°C]) [°C]	viability at 500 µM (HeLa cells; [3]) [%]	Tb Ino1 Tm Shift [˚C] (TbINO1) [°C]	A549 Cells Alamar Blue (A549 cells)	HeLa Cells Alamar Blue (HeLa cells)
0.36 ± 0.07	OCc1ccncc1 [compound 18, 4‐pyridinylmethanol]	102	104 ± 3.9					
0.4 ± 0.09	Nc1ccc2c(c1)OCCO2 [compound 193, 2,3‐dihydro‐1,4‐benzodioxin‐6‐amine]	44.7	79.9 ± 13.6					
0.14 ± 0.07	CC1Cc2ccccc2C1=O (stereo not drawn) [compound 157, 2‐methylindan‐1‐one]	126	94.7 ± 3.5					
0.09 ± 0.08	Cc1cccc(O)n1 [compound 19, 6‐methylpyridin‐2‐ol]	85.6	103 ± 7.6					
0.48 ± 0.06	C#Cc1ccc(OC)cc1 [compound 96, 1‐eth‐1‐ynyl‐4‐methoxybenzene]	111	94 ± 4.9					
0.32 ± 0.07	O=C(Nc1ccncc1)c1ccccc1 [compound 603, N1‐(4‐pyridyl)benzamide]	57.3	79 ± 15.1					
1.23 ± 0.07	O=C(O)CCc1ccccc1O [compound 323, 3‐(2‐hydroxyphenyl)propanoic acid]	110	113 ± 2.8					
0.8 ± 0.08	OCc1cc2cccnc2s1 [compound 311, thieno[2,3‐b]pyridin‐2‐ylmethanol]	77.5	92 ± 11.8					
0.44 ± 0.08	OCc1cn2ccccc2n1 [compound 172, imidazo[1,2‐a]pyridin‐2‐ylmethanol]	97.5	86.6 ± 15.1					
0.27 ± 0.08	Nc1cccc(N2CCOCC2)c1 [compound 441, 3‐morpholin‐4‐ylaniline]	85	77.7 ± 16.7					
0.24 ± 0.09	Nc1ccc(CO)cn1 [compound 66, (6‐amino‐3‐pyridinyl)methanol]	85.1	80.3 ± 9.7					
0.17 ± 0.08	OCc1ccc(N2CCOCC2)cc1 [compound 578, (4‐morpholin‐4‐yl‐phenyl)‐methanol]	75.4	42.3 ± 9					
0.23 ± 0.07	O=C1CCOCC1 [compound 12, tetrahydro‐4H‐pyran‐4‐one]	97.4	100 ± 3.5					
1.23 ± 0.07	O=C(O)c1cccc(N2CCCCC2)c1 [compound 663, 3‐piperidinobenzoic acid]	104	97.9 ± 1.5					
0.12 ± 0.08	Cc1ccc2cc(C(=O)O)ccc2n1 [compound 510, 2‐methyl‐6‐quinolinecarboxylic acid]	126	117 ± 10.8					
